Literature values as cited in patent US20170071966A1, “PHARMACEUTICAL COMPOSITION” (priority 2014, published 2017).
Like-named read-outs stand apart in the source and are kept apart here. Each block holds one compound with its values, some of them ahead of it.

Key:
[1] = system: mice exposed to whole body radiation; conditions: beta-carotene alone, given orally before or after whole body radiation
[2] = a few subjects, gram quantities
[3] = not given; remark: listed apart in the source
[4] = mice, drinking water 10, 20 and 30 mg/ml (4000, 8000, 12000 mg/kg body weight), 19-day experiment
[5] = gerbils, 1% in the food for 8 weeks
[6] = Nakane et al. 1996
[7] = Zhang et al. 1994
[8] = Senel et al. 1994

SMILES: CC1=C(/C=C/C(C)=C/C=C/C(C)=C/C=C/C=C(C)/C=C/C=C(C)/C=C/C2=C(C)CCCC2(C)C)C(C)(C)CCC1 [beta-carotene]
risk of hypervitaminosis A (high beta-carotene doses): no risk of hypervitaminosis A
long-term safety (patients with erythropoietic protoporphyria, 180 to 300 mg per day): safe at the highest daily dose for a lifetime
acute toxicity (surveillance over the decades it was a prescription drug): no known acute toxicity
survival from radiation [1]: enhance survival

ill effects [2]: no known ill effects
water solubility [3]: highly water-soluble
ill effects [4]: no obvious ill effects
SMILES: Nc1nc2c(ncn2[C@@H]2O[C@H](COP(=O)(O)O)[C@@H](O)[C@H]2O)c(=O)[nH]1 [guanosine monophosphate, Guanosine Monophosphate]

water solubility [3]: slightly water-soluble
deleterious effects [5]: no obvious deleterious effects
SMILES: Nc1nc2c(ncn2[C@@H]2O[C@H](CO)[C@@H](O)[C@H]2O)c(=O)[nH]1 [guanosine]

SMILES: C[C@H](CCC(=O)[O-])[C@H]1CC[C@H]2[C@@H]3[C@H](O)C[C@@H]4C[C@H](O)CC[C@]4(C)[C@H]3C[C@H](O)[C@]12C.[Na+] [sodium cholate, Sodium cholate]
absorption of luteinizing hormone releasing hormone [6]: increased the absorption
buccal absorption of insulin [7]: increased the buccal absorption
increase of mucosal permeability of fluorescein isothiocyanate [8]: 100-200 times
